According to ChEMBL document CHEMBL1201861, “Genomics of Drug Sensitity in Cancer screening data, Wellcome Trust Sanger Institute”:
Where “and” joins values, the source holds several entries; their conditions need not be identical. Equal values may be shown once.

What was measured:
Assay in all cases: cells
[1] = system: YAPC; format: functional, cell-based, Homo sapiens;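 further: growth inhibition of YAPC cells, measured with a cell viability assay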
Description: SANGER: Inhibition of human YAPC cell growth in a cell viability assay.

[2] = system: HCC1937; format: functional, cell-based, Homo sapiens;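 further: growth inhibition measured with a cell viability read-out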
Description: SANGER: Inhibition of human HCC1937 cell growth in a cell viability assay.

[3] = system: MDA-MB-157; format: functional, cell-based, Homo sapiens
Description: SANGER: Inhibition of human MDA-MB-157 cell growth in a cell viability assay.

[4] = system: SW48; format: functional, cell-based, Homo sapiens;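 further: growth inhibition of SW48 cells, read out with a cell viability assay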
Description: SANGER: Inhibition of human SW48 cell growth in a cell viability assay.

[5] = system: HCC1806; format: functional, cell-based, Homo sapiens;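 further: growth inhibition of the cancer cell line, determined with a cell viability assay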
Description: SANGER: Inhibition of human HCC1806 cell growth in a cell viability assay.

[6] = system: CAKI-1; format: functional, cell-based, Homo sapiens;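 further: growth inhibition of CAKI-1 cells, measured by a cell viability assay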
Description: SANGER: Inhibition of human CAKI-1 cell growth in a cell viability assay.

[7] = system: HGC-27; format: functional, cell-based, Homo sapiens;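 further: growth inhibition of human HGC-27 cells, read out in a cell viability assay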
Description: SANGER: Inhibition of human HGC-27 cell growth in a cell viability assay.

[8] = system: EW-1; format: functional, cell-based, Homo sapiens;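 further: growth inhibition of the human EW-1 cell line, read out by a cell viability assay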
Description: SANGER: Inhibition of human EW-1 cell growth in a cell viability assay.

[9] = system: MOLT-4; format: functional, cell-based; settings: Homo sapiens;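 further: growth inhibition of MOLT-4 cells, determined with a cell viability readout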
Description: SANGER: Inhibition of human MOLT-4 cell growth in a cell viability assay.

[10] = system: COLO-680N; format: functional, cell-based, Homo sapiens;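 further: cell viability assay used to measure inhibition of COLO-680N cell growth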
Description: SANGER: Inhibition of human COLO-680N cell growth in a cell viability assay.

[11] = system: KU812 cell line; format: functional, cell-based; settings: Homo sapiens;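 further: growth inhibition of KU812 cells, read out with a cell viability assay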
Description: SANGER: Inhibition of human KU812 cell growth in a cell viability assay.

[12] = system: KYSE-270; format: functional, cell-based, Homo sapiens;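 further: cell growth inhibition measured with a viability assay in the human KYSE-270 line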
Description: SANGER: Inhibition of human KYSE-270 cell growth in a cell viability assay.

[13] = system: PANC-03-27; format: functional, cell-based, Homo sapiens
Description: SANGER: Inhibition of human PANC-03-27 cell growth in a cell viability assay.

[14] = system: BT-474; format: functional, cell-based, Homo sapiens
Description: SANGER: Inhibition of human BT-474 cell growth in a cell viability assay.

[15] = system: COLO-792; format: functional, cell-based, Homo sapiens
Description: SANGER: Inhibition of human COLO-792 cell growth in a cell viability assay.

[16] = system: MG-63; format: functional, cell-based, Homo sapiens;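 further: growth inhibition of human MG-63 cells, read out with a cell viability assay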
Description: SANGER: Inhibition of human MG-63 cell growth in a cell viability assay.

[17] = system: D-542MG; format: functional, cell-based, Homo sapiens; settings: d-542mg
Description: SANGER: Inhibition of human D-542MG cell growth in a cell viability assay.

[18] = system: HD-MY-Z; format: functional, cell-based, Homo sapiens;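 further: growth inhibition of HD-MY-Z cells, read out with a cell viability assay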
Description: SANGER: Inhibition of human HD-MY-Z cell growth in a cell viability assay.

[19] = system: EW-13; format: functional, cell-based; settings: Homo sapiens;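 further: growth inhibition of EW-13 cells, read out with a cell viability assay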
Description: SANGER: Inhibition of human EW-13 cell growth in a cell viability assay.

[20] = system: NTERA-2-cl-D1; format: functional, cell-based, Homo sapiens;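 further: inhibition of cell growth, measured with a cell viability assay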
Description: SANGER: Inhibition of human NTERA-S-cl-D1 cell growth in a cell viability assay.

[21] = system: EFO-21; format: functional, cell-based, Homo sapiens;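 further: growth inhibition of EFO-21 cells measured with a viability assay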
Description: SANGER: Inhibition of human EFO-21 cell growth in a cell viability assay.

[22] = system: Daoy; format: functional, cell-based, Homo sapiens;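 further: daoy cell growth inhibition, read out as cell viability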
Description: SANGER: Inhibition of human Daoy cell growth in a cell viability assay.

[23] = system: 769-P; format: functional, cell-based, Homo sapiens
Description: SANGER: Inhibition of human 769-P cell growth in a cell viability assay.

[24] = system: HuO-3N1; format: functional, cell-based, Homo sapiens;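 further: cell viability readout used to measure how strongly compounds suppress proliferation of human HuO-3N1 cells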
Description: SANGER: Inhibition of human HuO-3N1 cell growth in a cell viability assay.

[25] = system: SNU-C2B; format: functional, cell-based, Homo sapiens;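 further: cell viability readout used to measure compound-driven suppression of SNU-C2B cell proliferation, IC50 marking half-maximal growth inhibition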
Description: SANGER: Inhibition of human SNU-C2B cell growth in a cell viability assay.

[26] = system: ABC-1; format: functional, cell-based, Homo sapiens;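 further: growth inhibition of human ABC-1 cells, read out by a cell viability assay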
Description: SANGER: Inhibition of human ABC-1 cell growth in a cell viability assay.

[27] = system: TE-6; format: functional, cell-based, Homo sapiens;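 further: growth inhibition of TE-6 cells, read out with a cell viability assay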
Description: SANGER: Inhibition of human TE-6 cell growth in a cell viability assay.

[28] = system: HCC70; format: functional, cell-based, Homo sapiens;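 further: cell viability assay measuring how strongly the compound suppresses proliferation of HCC70 cells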
Description: SANGER: Inhibition of human HCC70 cell growth in a cell viability assay.

[29] = system: ES7; format: functional, cell-based, Homo sapiens;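 further: growth inhibition of cultured human ES7 cells, read out as cell viability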
Description: SANGER: Inhibition of human ES7 cell growth in a cell viability assay.

[30] = system: MKN-7; format: functional, cell-based, Homo sapiens;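 further: growth inhibition of MKN-7 cells, read out with a cell viability assay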
Description: SANGER: Inhibition of human MKN7 cell growth in a cell viability assay.

[31] = system: NCI-H2030; format: functional, cell-based, Homo sapiens;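 further: growth inhibition of human NCI-H2030 cells, read out by a cell viability assay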
Description: SANGER: Inhibition of human NCI-H2030 cell growth in a cell viability assay.

[32] = system: NB14; format: functional, cell-based; settings: Homo sapiens;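 further: growth inhibition of NB14 cells measured with a cell viability assay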
Description: SANGER: Inhibition of human NB14 cell growth in a cell viability assay.

[33] = system: NCI-H1155; format: functional, cell-based; settings: Homo sapiens;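 further: cell growth inhibition measured by a viability assay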
Description: SANGER: Inhibition of human NCI-H1155 cell growth in a cell viability assay.

[34] = system: COLO-320-HSR; format: functional, cell-based; settings: Homo sapiens;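 further: growth inhibition of COLO-320-HSR cells, determined with a cell viability assay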
Description: SANGER: Inhibition of human COLO-320-HSR cell growth in a cell viability assay.

[35] = system: ES8; format: functional, cell-based, Homo sapiens;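 further: growth inhibition of human ES8 cells, read out with a cell viability assay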
Description: SANGER: Inhibition of human ES8 cell growth in a cell viability assay.

[36] = system: COLO-824; format: functional, cell-based, Homo sapiens
Description: SANGER: Inhibition of human COLO-824 cell growth in a cell viability assay.

[37] = system: HOP-62; format: functional, cell-based, Homo sapiens; settings: hop-62;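 further: cell growth inhibition determined with a viability assay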
Description: SANGER: Inhibition of human HOP-62 cell growth in a cell viability assay.

[38] = system: RO82-W-1; format: functional, cell-based, Homo sapiens;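 further: growth inhibition of human RO82-W-1 cells, measured with a cell viability assay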
Description: SANGER: Inhibition of human RO82-W-1 cell growth in a cell viability assay.

[39] = system: RMG-I; format: functional, cell-based, Homo sapiens;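 further: growth inhibition of human RMG-I cells, read out with a cell viability assay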
Description: SANGER: Inhibition of human RMG-I cell growth in a cell viability assay.

[40] = system: SW1088; format: functional, cell-based, Homo sapiens;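 further: growth inhibition of human SW1088 cells, read out by a cell viability assay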
Description: SANGER: Inhibition of human SW1088 cell growth in a cell viability assay.

[41] = system: COLO-668; format: functional, cell-based, Homo sapiens
Description: SANGER: Inhibition of human COLO-668 cell growth in a cell viability assay.

[42] = system: MDA-MB-231; format: functional, cell-based, Homo sapiens
Description: SANGER: Inhibition of human MDA-MB-231 cell growth in a cell viability assay.

[43] = system: C2BBe1; format: functional, cell-based, Homo sapiens;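 further: growth inhibition of C2BBe1 cells, read out through a viability assay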
Description: SANGER: Inhibition of human C2BBe1 cell growth in a cell viability assay.

[44] = system: NCI-H1355; format: functional, cell-based, Homo sapiens;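 further: growth inhibition of human NCI-H1355 cells, read out by a cell viability assay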
Description: SANGER: Inhibition of human NCI-H1355 cell growth in a cell viability assay.

[45] = system: TYK-nu; format: functional, cell-based, Homo sapiens;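 further: growth inhibition of human TYK-nu cells, read out by a cell viability assay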
Description: SANGER: Inhibition of human TYK-nu cell growth in a cell viability assay.

[46] = system: NCI-H28; format: functional, cell-based, Homo sapiens;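 further: growth inhibition of human NCI-H28 cells, read out as cell viability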
Description: SANGER: Inhibition of human NCI-H28 cell growth in a cell viability assay.

[47] = system: D-263MG; format: functional, cell-based, Homo sapiens
Description: SANGER: Inhibition of human D-263MG cell growth in a cell viability assay.

[48] = system: A2058; format: functional, cell-based; settings: Homo sapiens;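 further: reduction of A2058 cell growth, read out with a viability assay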
Description: SANGER: Inhibition of human A2058 cell growth in a cell viability assay.

[49] = system: LoVo; format: functional, cell-based; settings: Homo sapiens;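 further: growth inhibition of human LoVo cells, read out with a cell viability assay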
Description: SANGER: Inhibition of human LoVo cell growth in a cell viability assay.

[50] = system: SW982; format: functional, cell-based; settings: Homo sapiens;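 further: growth inhibition of SW982 cells, read out with a cell viability assay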
Description: SANGER: Inhibition of human SW982 cell growth in a cell viability assay.

[51] = system: J82; format: functional, cell-based; settings: Homo sapiens;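 further: growth inhibition of J82 cells, read out with a cell viability assay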
Description: SANGER: Inhibition of human J82 cell growth in a cell viability assay.

## Cc1cc([C@@H](C)Nc2ccccc2C(=O)O)c2nc(N3CCOCC3)cc(=O)n2c1 [AZD-6482]
[1]; yapc
  IC50: > 5.12 µM
[2]; hcc1937
  IC50: > 5.12 µM
[3]; mda-mb-157
  IC50: > 5.12 µM
[4]; Homo sapiens, SW48
  IC50: > 5.12 µM
[4]; sw48
  IC50: > 5.12 µM
[5]; hcc1806
  IC50: > 5.12 µM
[6]; Homo sapiens, CAKI-1
  IC50: 3.17 µM
[6]; caki-1
  IC50: 4.71 µM
[7]; hgc-27
  IC50: 1.18 µM and > 5.12 µM
[8]; ew-1
  IC50: > 5.12 µM
[9]
  IC50: > 5.12 µM
[10]; colo-680n
  IC50: > 5.12 µM
[11]
  IC50: 1.6 µM
[12]; kyse-270
  IC50: > 5.12 µM
[13]; Homo sapiens, PANC-03-27
  IC50: > 5.12 µM
[13]; panc-03-27
  IC50: 4.4 µM
[14]; bt-474
  IC50: > 5.12 µM
[15]; colo-792
  IC50: > 5.12 µM
[16]; mg-63
  IC50: > 5.12 µM and 1.59 µM
[17]
  IC50: 1.85 µM and > 5.12 µM
[18]; hd-my-z
  IC50: > 5.12 µM
[19]
  IC50: > 5.12 µM
[20]; Homo sapiens, NTERA-2-cl-D1
  IC50: 2.19 µM
[20]; ntera-2-cl-d1
  IC50: 4.38 µM
[21]; efo-21
  IC50: 5.04 µM and > 5.12 µM
[22]; Homo sapiens, Daoy
  IC50: > 5.12 µM
[22]; daoy
  IC50: > 5.12 µM
[23]; 769-p
  IC50: > 5.12 µM
[24]; Homo sapiens, HuO-3N1
  IC50: > 5.12 µM
[24]; huo-3n1
  IC50: > 5.12 µM
[25]; Homo sapiens, SNU-C2B
  IC50: > 5.12 µM
[25]; snu-c2b
  IC50: > 5.12 µM
[26]; abc-1
  IC50: > 5.12 µM
[27]; te-6
  IC50: > 5.12 µM
[28]; hcc70
  IC50: 1.66 µM and > 5.12 µM
[29]; es7
  IC50: 0.813 µM and 3.26 µM
[30]; mkn-7
  IC50: > 5.12 µM
[31]; Homo sapiens, NCI-H2030
  IC50: 2.9 µM
[31]; nci-h2030
  IC50: 2.69 µM
[32]
  IC50: > 5.12 µM
[33]
  IC50: > 5.12 µM
[34]
  IC50: > 5.12 µM
[35]; es8
  IC50: > 5.12 µM
[36]; colo-824
  IC50: > 5.12 µM
[37]
  IC50: > 5.12 µM
[38]; ro82-w-1
  IC50: > 5.12 µM
[39]; rmg-i
  IC50: > 5.12 µM
[40]; Homo sapiens, SW1088
  IC50: 2.48 µM
[40]; sw1088
  IC50: 2.01 µM
[41]; colo-668
  IC50: > 5.12 µM
[42]; Homo sapiens, MDA-MB-231
  IC50: > 5.12 µM
[42]; mda-mb-231
  IC50: > 5.12 µM
[43]; Homo sapiens, C2BBe1
  IC50: > 5.12 µM
[43]; c2bbe1
  IC50: > 5.12 µM
[44]; Homo sapiens, NCI-H1355
  IC50: > 5.12 µM
[44]; nci-h1355
  IC50: > 5.12 µM
[45]; tyk-nu
  IC50: > 5.12 µM
[46]; nci-h28
  IC50: > 5.12 µM
[47]; d-263mg
  IC50: > 5.12 µM and 2.17 µM
[48]
  IC50: > 5.12 µM

## CN(Cc1cnc2nc(N)nc(N)c2n1)c1ccc(C(=O)N[C@@H](CCC(=O)O)C(=O)O)cc1 [METHOTREXATE]
[1]; Homo sapiens, YAPC
  IC50: > 0.2 µM
[2]; Homo sapiens, HCC1937
  IC50: > 0.2 µM
[3]; Homo sapiens, MDA-MB-157
  IC50: > 0.2 µM
[4]; Homo sapiens, SW48
  IC50: > 0.2 µM
[5]; Homo sapiens, HCC1806
  IC50: > 0.2 µM
[6]; Homo sapiens, CAKI-1
  IC50: > 0.2 µM
[7]; Homo sapiens, HGC-27
  IC50: > 0.2 µM
[8]; Homo sapiens, EW-1
  IC50: 0.168 µM
[9]
  IC50: 0.0212 µM
[10]; Homo sapiens, COLO-680N
  IC50: > 0.2 µM
[12]; Homo sapiens, KYSE-270
  IC50: 0.0521 µM
[13]; Homo sapiens, PANC-03-27
  IC50: > 0.2 µM
[14]; Homo sapiens, BT-474
  IC50: > 0.2 µM
[15]; Homo sapiens, COLO-792
  IC50: > 0.2 µM
[16]; Homo sapiens, MG-63
  IC50: 0.197 µM
[18]; Homo sapiens, HD-MY-Z
  IC50: > 0.2 µM
[19]
  IC50: 0.0723 µM
[20]; Homo sapiens, NTERA-2-cl-D1
  IC50: > 0.2 µM
[21]; Homo sapiens, EFO-21
  IC50: > 0.2 µM
[22]; Homo sapiens, Daoy
  IC50: > 0.2 µM
[23]; Homo sapiens, 769-P
  IC50: 0.0453 µM
[24]; Homo sapiens, HuO-3N1
  IC50: 0.0891 µM
[25]; Homo sapiens, SNU-C2B
  IC50: 0.145 µM
[26]; Homo sapiens, ABC-1
  IC50: > 0.2 µM
[49]
  IC50: > 0.2 µM
[27]; Homo sapiens, TE-6
  IC50: > 0.2 µM
[28]; Homo sapiens, HCC70
  IC50: > 0.2 µM
[29]; Homo sapiens, ES7
  IC50: 0.148 µM
[50]
  IC50: > 0.2 µM
[30]; Homo sapiens, MKN-7
  IC50: > 0.2 µM
[31]; Homo sapiens, NCI-H2030
  IC50: > 0.2 µM
[32]
  IC50: 0.075 µM
[33]
  IC50: > 0.2 µM
[34]
  IC50: 0.0524 µM
[35]; Homo sapiens, ES8
  IC50: > 0.2 µM
[36]; Homo sapiens, COLO-824
  IC50: > 0.2 µM
[38]; Homo sapiens, RO82-W-1
  IC50: > 0.2 µM
[39]; Homo sapiens, RMG-I
  IC50: > 0.2 µM
[40]; Homo sapiens, SW1088
  IC50: > 0.2 µM
[51]
  IC50: > 0.2 µM
[41]; Homo sapiens, COLO-668
  IC50: > 0.2 µM
[42]; Homo sapiens, MDA-MB-231
  IC50: > 0.2 µM
[43]; Homo sapiens, C2BBe1
  IC50: > 0.2 µM
[44]; Homo sapiens, NCI-H1355
  IC50: > 0.2 µM
[45]; Homo sapiens, TYK-nu
  IC50: 0.197 µM
[46]; Homo sapiens, NCI-H28
  IC50: > 0.2 µM
[47]; Homo sapiens, D-263MG
  IC50: > 0.2 µM
[48]
  IC50: > 0.2 µM
